Experimental data as given in patent US20080051449A1, “PREPARATION OF ATORVASTATIN CALCIUM FORM VI AND COMPOSITIONS THEREOF” (priority 2006, published 2008).

Legend:
Type in all cases: physicochemical
[1] = Particle size distribution by Malvern particle size analyzer; conditions: dispersant 0.7% dioctyl sodium sulfosuccinate in n-hexane
Source text: A particle size distribution of D50 as used herein is defined as the distribution where 50 volume percent of the particles are smaller than that size given. A particle size distribution of D10 as used herein is defined as the distribution where 10 volume percent of the particles are smaller than that size given. A particle size distribution of D90 as used herein is defined as the distribution where 90 volume percent of the particles are smaller than that size given. The D50 value is considered to be a “mean particle size.” Particle size can be determined using commercially available instrumentation, such as that sold by Malvern Instruments Ltd. of Malvern, Worcestershire, United Kingdom and using a laser diffraction principle.
The particle size distribution of atorvastatin calcium Form VI was determined using a Malvern® particle size analyzer, and 0.7% of dioctyl sodium sulfosuccinate in n-hexane was used as the dispersant.

[2] = Stability study at 40° C. and 75% relative humidity; conditions: 40° C./75% RH
Source text: Stability packaging: The sample was packed in a clear polyethylene bag and flushed with nitrogen, then tied and placed in a black polyethylene bag along with silica gel and tied. Finally the black bag was placed in a triple laminated bag and sealed with a liner sealer.

[3] = Stability study during storage at 25° C. and 60% relative humidity; conditions: 25° C./60% RH
Experimental: Stability Study of Atorvastatin Calcium Crystalline Form VI (Example 3) During Storage at 25° C. and 60% Relative Humidity.
Stability packaging: same as Example 5.

[4] = Stability study under various stress conditions in an open container
Source text: Stability Study of Atorvastatin Calcium Crystalline Form VI (Example 3) Subject to Various Stress Conditions in an Open Container

[5] = Accelerated Stability (40° C. and 75% relative humidity) 24 hours
[6] = Compression (2000 kg/cm^2) for 1 hour
[7] = UV Photostability λ = 254 nm, 24 hours

In the case of “[R—(R*,R*)]-2-(4-fluorophenyl)-β,δ-dihydroxy-5-(1-methylethyl)-3-phenyl-4[(phenyl amino) carbonyl]-IH-pyrrole-1-heptanoic acid, calcium salt (2:1) trihydrate [Atorvastatin calcium Form VI (Example 3)]”, the “Particle Size D10” value [1] is reported as 1.32 μm, the “Particle Size D50” value [1] is reported as 5.22 μm and the “Particle Size D90” value [1] is reported as 24.54 μm. For the same substance, the “Assay by HPLC” value ([2]; 1 month) was 99.2 % w/w, the “Moisture Content” value ([2]; 1 month) was 1.4 % w/w and the “Total Impurities by HPLC” value ([2]; 1 month) was 0.14 % w/w. For the same substance, the “Assay by HPLC” value ([2]; 3 months) was 99.2 % w/w, the “Moisture Content” value ([2]; 3 months) was 1.6 % w/w and the “Total Impurities by HPLC” value ([2]; 3 months) was 0.15 % w/w. For the same substance, the “Assay by HPLC” value ([2]; 6 months) was 99.2 % w/w, the “Moisture Content” value ([2]; 6 months) was 1.6 % w/w and the “Total Impurities by HPLC” value ([2]; 6 months) was 0.24 % w/w. For the same substance, the “Assay by HPLC” value ([2]; Initial) was 99.1 % w/w, the “Moisture Content” value ([2]; Initial) was 1.4 % w/w and the “Total Impurities by HPLC” value ([2]; Initial) was 0.18 % w/w. For the same substance, the “Assay by HPLC” value ([3]; 1 month) was 99.1 % w/w, the “Moisture Content” value ([3]; 1 month) was 1.5 % w/w and the “Total Impurities by HPLC” value ([3]; 1 month) was 0.16 % w/w. For the same substance, the “Assay by HPLC” value ([3]; 3 months) was 99.1 % w/w, the “Moisture Content” value ([3]; 3 months) was 1.7 % w/w and the “Total Impurities by HPLC” value ([3]; 3 months) was 0.14 % w/w. The “Assay by HPLC” value ([3]; 6 months) was 99.3 % w/w, the “Moisture Content” value ([3]; 6 months) was 1.5 % w/w and the “Total Impurities by HPLC” value ([3]; 6 months) was 0.23 % w/w. For the same substance, the “Assay by HPLC” value ([3]; Initial) was 99.1 % w/w, the “Moisture Content” value ([3]; Initial) was 1.4 % w/w and the “Total Impurities by HPLC” value ([3]; Initial) was 0.18 % w/w. The “Total Impurities” value [4, 5] was 0.29 % w/w, the “Water by KF” value [4, 5] was 1.85 % w/w and the “Total Impurities” value [4, 6] was 0.32 % w/w. The “Water by KF” value [4, 6] was 1.68 % w/w, the “Total Impurities” value ([4]; Initial analysis) was 0.26 % w/w and the “Water by KF” value ([4]; Initial analysis) was 1.60 % w/w. The “Total Impurities” value ([4]; Thermal (90° C.) 24 hours) was 0.7 % w/w, the “Water by KF” value ([4]; Thermal (90° C.) 24 hours) was 1.04 % w/w and the “Total Impurities” value [4, 7] was 0.27 % w/w. For the same substance, the “Water by KF” value [4, 7] was 1.54 % w/w.
